Laboratory results: patent US20240308973A1, “PHOSPHODIESTERASE 3 (PDE3) INHIBITORS” (Zoetis Services LLC, priority 2023, published 2024)

Legend:
[1] = Dog plasma half-life after oral dose; format: in vivo; settings: Beagle dogs, oral dose 0.1 mg/kg, plasma over 72 hours, read-out: t½ (hrs), Dog Plasma Compound Half-life (converted)
Method: Lastly, plasma half-life was assessed for a number of compounds in dogs. Beagle dogs were given an oral dose (0.1 mg/kg) of the respective compound accounting for a dose amount of about 1 mg/dog. Pimopendan was administered at a 0.3 mg/kg dose.

[2] = target: dog PDE3A recombinant enzyme (Canis lupus familiaris, UniProt A0A8I3NYE0); test: cPDE3A assay (fluorescent polarization); format: biochemical; settings: canine PDE3A, read-out: cPDE3 Inhibition (IC50)
Chain of dog PDE3A recombinant enzyme (A0A8I3NYE0 1-1135): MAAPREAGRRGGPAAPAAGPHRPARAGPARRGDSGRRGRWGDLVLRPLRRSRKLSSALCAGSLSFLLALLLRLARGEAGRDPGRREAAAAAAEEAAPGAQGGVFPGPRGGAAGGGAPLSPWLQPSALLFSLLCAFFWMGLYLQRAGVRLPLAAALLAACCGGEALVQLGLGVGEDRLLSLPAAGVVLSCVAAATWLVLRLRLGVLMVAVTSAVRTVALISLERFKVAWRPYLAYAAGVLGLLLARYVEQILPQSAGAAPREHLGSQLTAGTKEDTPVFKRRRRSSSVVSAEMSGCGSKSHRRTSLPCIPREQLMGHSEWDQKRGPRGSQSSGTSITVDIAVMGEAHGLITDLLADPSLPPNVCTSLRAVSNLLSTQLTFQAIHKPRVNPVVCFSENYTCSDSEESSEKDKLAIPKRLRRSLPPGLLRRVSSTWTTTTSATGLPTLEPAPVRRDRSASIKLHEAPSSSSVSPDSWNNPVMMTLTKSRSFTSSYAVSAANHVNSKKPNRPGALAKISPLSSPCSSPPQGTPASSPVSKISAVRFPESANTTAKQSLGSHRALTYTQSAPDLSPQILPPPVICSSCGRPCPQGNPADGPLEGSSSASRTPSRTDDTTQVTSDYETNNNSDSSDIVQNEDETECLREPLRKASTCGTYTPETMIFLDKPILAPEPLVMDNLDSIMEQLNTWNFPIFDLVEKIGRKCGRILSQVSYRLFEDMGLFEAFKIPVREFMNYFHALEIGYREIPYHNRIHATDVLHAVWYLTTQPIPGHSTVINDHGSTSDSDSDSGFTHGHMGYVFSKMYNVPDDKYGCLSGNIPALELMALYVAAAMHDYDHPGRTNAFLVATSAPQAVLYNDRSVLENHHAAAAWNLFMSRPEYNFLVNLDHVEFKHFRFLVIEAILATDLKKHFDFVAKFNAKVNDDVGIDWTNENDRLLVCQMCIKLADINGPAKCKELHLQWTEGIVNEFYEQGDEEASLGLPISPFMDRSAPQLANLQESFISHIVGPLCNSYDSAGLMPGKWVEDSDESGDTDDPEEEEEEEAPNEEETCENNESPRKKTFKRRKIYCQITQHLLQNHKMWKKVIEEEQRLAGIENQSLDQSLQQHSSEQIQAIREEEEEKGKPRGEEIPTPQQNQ
Method: cPDE3A Assay (Fluorescent Polarization)
The canine PDE3A assay kit was purchased from BPS Bioscience (San Diego, CA) which included dog PDE3A recombinant enzyme, FAM-cyclic-3′,5′-AMP (20 μM), PDE3 assay buffer, binding agent, binding agent diluent and microtiter 96-well plates. Compounds were initially dissolved in DMSO. The stock concentration was subsequently diluted in cPDE assay buffer (10× stock) and serially diluted to give a concentration response curve starting at 10 μM (≥7 total concentrations). Following the serial dilution, compound solution (0.1% final DMSO) was transferred to an assay plate (96-well) where the remaining canine PDE3A assay reagents were dispensed according to the BPS Bioscience® protocol (catalog #79735) procedure using a final concentration of 5 pg/μL of enzyme. Each compound was evaluated for the inhibition of the canine PDE3A enzyme activity using the measurement of fluorescent polarization changes. The 50% inhibition concentration (IC50) nM was calculated and reported.

| SMILES | half-life [1] [h] | IC50 [2] [nM] |
| --- | --- | --- |
| COc1ccc(C2(c3nc4ccc(C5=NNC(=O)CC5C)cc4[nH]3)CC2)cc1 (centres unmarked) [Example #19, 6-(2-(1-(4-methoxyphenyl)cyclopropyl)-1H-benzo[d]imidazol-6-yl)-5-methyl-4,5-dihydropyridazin-3 (2H)-one] | 16 |  |
| CC1SC(=O)NN=C1c1cc(-c2cscn2)c2c(c1)C(C)(C)C(=O)N2 (centres unmarked) [Example #68, 5-(3,3-dimethyl-2-oxo-7-(thiazol-4-yl)indolin-5-yl)-6-methyl-3,6-dihydro-2H-1,3,4-thiadiazin-2-one] | 12 | 118 |
| CC1(C)C(=O)Nc2c(Cl)cc(-c3cnc4c(c3)CC(=O)N4)cc21 [Example #85, 5-(7-chloro-3,3-dimethyl-2-oxoindolin-5-yl)-1,3-dihydro-2H-pyrrolo[2,3-b]pyridin-2-one] | 9 | 49.7 |
| CC1(C)C(=O)Nc2c(Br)cc(C3=NNC(=O)SC3)cc21 [Example #66, 5-(7-bromo-3,3-dimethyl-2-oxoindolin-5-yl)-3,6-dihydro-2H-1,3,4-thiadiazin-2-one] | 10.2 | 24.4 |
| CC1(C)C(=O)Nc2c(Br)cc(-c3ccc(=O)[nH]n3)cc21 [Example #32, 7-bromo-3,3-dimethyl-5-(6-oxo-1,6-dihydropyridazin-3-yl)indolin-2-one] |  | 26.7 |
| C[C@H]1SC(=O)NN=C1c1cc(Cl)c2c(c1)C(C)(C)CC(=O)N2 [Example #67, (6R)-5-(8-chloro-4,4-dimethyl-2-oxo-1,2,3,4-tetrahydroquinolin-6-yl)-6-methyl-3,6-dihydro-2H-1,3,4-thiadiazin-2-one] |  | 48.3 |
| O=C1CCc2cc(-c3ccc(=O)[nH]n3)cc(-c3ccc(Cl)cc3)c2N1 [Example #9, 8-(4-chlorophenyl)-6-(6-oxo-1,6-dihydropyridazin-3-yl)-3,4-dihydroquinolin-2 (1H)-one] |  | 13.6 |
| COc1ccc(-c2cc(C3=NNC(=O)CC3C)cc3c2NC(=O)CCC3)cn1 (centres unmarked) [Example #18, 9-(6-methoxypyridin-3-yl)-7-(4-methyl-6-oxo-1,4,5,6-tetrahydropyridazin-3-yl)-1,3,4,5-tetrahydro-2H-benzo[b]azepin-2-one] |  | 42.1 |
| CC1CC(=O)NN=C1c1cc(C2CC2)c2nc(O)ccc2c1 (centres unmarked) [compound 48, 6-(8-cyclopropyl-2-hydroxyquinolin-6-yl)-5-methyl-4,5-dihydropyridazin-3 (2H)-one] |  | 18 |
| O=c1ccc(-c2cc(Cl)c3[nH]c(=O)sc3c2)n[nH]1 [compound 52, 4-chloro-6-(6-oxo-1,6-dihydropyridazin-3-yl)benzo[d]thiazol-2 (3H)-one] |  | 24.7 |
| C[C@H]1CC(=O)NN=C1c1cc(Cl)c2c(c1)C(C)(C)NC2=O [Example #51, (S)-7-chloro-3,3-dimethyl-5-(4-methyl-6-oxo-1,4,5,6-tetrahydropyridazin-3-yl)isoindolin-2-one] |  | 336 |
| CC1SC(=O)NN=C1c1cc(Cl)c2c(c1)CNC2=O (centres unmarked) [Example #79, 5-(7-chloro-1-oxoisoindolin-5-yl)-6-methyl-3,6-dihydro-2H-1,3,4-thiadiazin-2-one] |  | 20.3 |
| CC1SC(=O)NN=C1c1cc2c(c(-c3ccccc3)c1)NC(=O)C2 (centres unmarked) [compound 70, 6-methyl-5-(2-oxo-7-phenylindolin-5-yl)-3,6-dihydro-2H-1,3,4-thiadiazin-2-one] |  | 80.7 |
| CC1SC(=O)NN=C1c1cc(Cl)c2c(c1)CC(=O)N2 (centres unmarked) [Example #62, 5-(7-chloro-2-oxoindolin-5-yl)-6-methyl-3,6-dihydro-2H-1,3,4-thiadiazin-2-one] | 5 |  |
| Cc1cc(=O)[nH]nc1-c1cc(-c2cscn2)c2c(c1)C(C)(C)C(=O)N2 [Example #17, 3,3-dimethyl-5-(4-methyl-6-oxo-1,6-dihydropyridazin-3-yl)-7-(thiazol-4-yl)indolin-2-one] |  | 62.4 |
| CC1(C)C(=O)Nc2c(F)cc(-c3ccc(=O)[nH]n3)cc21 [Example #27, 7-fluoro-3,3-dimethyl-5-(6-oxo-1,6-dihydropyridazin-3-yl)indolin-2-one] |  | 38.3 |
| COc1cc(-c2cc(C3=NNC(=O)CC3C)cc3c2NC(=O)CC3)ccn1 (centres unmarked) [Example #1, 8-(2-methoxypyridin-4-yl)-6-(4-methyl-6-oxo-1,4,5,6-tetrahydropyridazin-3-yl)-3,4-dihydroquinolin-2 (1H)-one] |  | 29.2 |
| CC1(C)C(=O)Nc2c(Cl)cc(C3=NNC(=O)SC3)cc21 [Example #61, 5-(7-chloro-3,3-dimethyl-2-oxoindolin-5-yl)-3,6-dihydro-2H-1,3,4-thiadiazin-2-one] | 8.5 |  |

More lines, in order of falling IC50 [2], values ahead:

| half-life [1] [h] | IC50 [2] [nM] | SMILES |
| --- | --- | --- |
| 55 | 13.3 | CC1SC(=O)NN=C1c1cc(F)c2c(c1)C(C)(C)C(=O)N2 (centres unmarked) [Example #74, 5-(7-fluoro-3,3-dimethyl-2-oxoindolin-5-yl)-6-methyl-3,6-dihydro-2H-1,3,4-thiadiazin-2-one] |
|  | 10.5 | CC1CC(=O)NN=C1c1cc(Cl)c2c(c1)CNC2=O (centres unmarked) [Example #39, 7-chloro-5-(4-methyl-6-oxo-1,4,5,6-tetrahydropyridazin-3-yl)isoindolin-1-one] |
| 94 | 9.1 | CC1CC(=O)NN=C1c1cc(Br)c2c(c1)C(C)(C)C(=O)N2 (centres unmarked) [Example #23, 7-bromo-3,3-dimethyl-5-(4-methyl-6-oxo-1,4,5,6-tetrahydropyridazin-3-yl)indolin-2-one] |
| 7 | 8.4 | CC1SC(=O)NN=C1c1cc(Cl)c2c(c1)C1(CC1)C(=O)N2 (centres unmarked) [Example #58, 5-(7′-chloro-2′-oxospiro[cyclopropane-1,3′-indolin]-5′-yl)-6-methyl-3,6-dihydro-2H-1,3,4-thiadiazin-2-one] |
|  | 7.4 | CC1CC(=O)NN=C1c1cc(C#N)c2nc(N)sc2c1 (centres unmarked) [Example #38, 2-amino-6-(4-methyl-6-oxo-1,4,5,6-tetrahydropyridazin-3-yl)benzo[d]thiazole-4-carbonitrile] |
|  | 7.3 | CC1CC(=O)NN=C1c1ccc2nc(Nc3ccc4ncsc4c3)n(C)c2c1 (centres unmarked) [compound 10, 6-(2-(benzo[d]thiazol-6-ylamino)-1-methyl-1H-benzo[d]imidazol-6-yl)-5-methyl-4,5-dihydropyridazin-3 (2H)-one] |
|  | 6.1 | CC1CC(=O)NN=C1c1cc(F)c2nc(N3CC(O)C3)sc2c1 (centres unmarked) [Example #37, 6-(4-fluoro-2-(3-hydroxyazetidin-1-yl)benzo[d]thiazol-6-yl)-5-methyl-4,5-dihydropyridazin-3 (2H)-one] |
|  | 5 | CC1CC(=O)NN=C1c1ccc2nc(Nc3ccc(S(C)(=O)=O)cc3)n(C3CC3)c2c1 (centres unmarked) [compound 16, 6-(1-cyclopropyl-2-((4-(methylsulfonyl)phenyl)amino)-1H-benzo[d]imidazol-6-yl)-5-methyl-4,5-dihydropyridazin-3 (2H)-one] |
| 7.5 | 4.9 | Cc1cc(C2=NNC(=O)SC2C)cc2c1NC(=O)CCC2 (centres unmarked) [Example #73, 6-methyl-5-(9-methyl-2-oxo-2,3,4,5-tetrahydro-1H-benzo[b]azepin-7-yl)-3,6-dihydro-2H-1,3,4-thiadiazin-2-one] |
|  | 4.9 | CC1CC(=O)NN=C1c1cc(F)c2c(c1)CC(=O)N2 (centres unmarked) [Example #50, 7-fluoro-5-(4-methyl-6-oxo-1,4,5,6-tetrahydropyridazin-3-yl)indolin-2-one] |
|  | 4.9 | CC1CC(=O)NN=C1c1ccc2nc(Nc3ccc(S(C)(=O)=O)cc3)n(C)c2c1 (centres unmarked) [Example #5, 5-methyl-6-(1-methyl-2-((4-(methylsulfonyl)phenyl)amino)-1H-benzo[d]imidazol-6-yl)-4,5-dihydropyridazin-3 (2H)-one] |
|  | 4 | CC1CC(=O)NN=C1c1cc(Cl)c2nc(N)sc2c1 (centres unmarked) [Example #30, 6-(2-amino-4-chlorobenzo[d]thiazol-6-yl)-5-methyl-4,5-dihydropyridazin-3 (2H)-one] |
|  | 4 | Cc1n[nH]c2c(Cl)cc(C3=NNC(=O)CC3C)cc12 (centres unmarked) [Example #47, 6-(7-chloro-3-methyl-1H-indazol-5-yl)-5-methyl-4,5-dihydropyridazin-3 (2H)-one] |
|  | 3.9 | CC1CC(=O)NN=C1c1cc(Cl)c2c(c1)C1(CC1)C(=O)N2 (centres unmarked) [Example #8, 7′-chloro-5′-(4-methyl-6-oxo-1,4,5,6-tetrahydropyridazin-3-yl)spiro[cyclopropane-1,3′-indolin]-2′-one] |
| 3.2 | 3.8 | Cc1cc(C2=NNC(=O)SC2C)cc2sc(=O)[nH]c12 (centres unmarked) [Example #55, 4-methyl-6-(6-methyl-2-oxo-3,6-dihydro-2H-1,3,4-thiadiazin-5-yl)benzo[d]thiazol-2 (3H)-one] |
|  | 3.7 | CNc1nc2c(F)cc(C3=NNC(=O)CC3C)cc2s1 (centres unmarked) [Example #34, 6-(4-fluoro-2-(methylamino)benzo[d]thiazol-6-yl)-5-methyl-4,5-dihydropyridazin-3 (2H)-one] |
|  | 3.2 | CC1CC(=O)NN=C1c1cc(Br)c2nc(O)ccc2c1 (centres unmarked) [compound 45, 6-(8-bromo-2-hydroxyquinolin-6-yl)-5-methyl-4,5-dihydropyridazin-3 (2H)-one] |
|  | 3.2 | CC1CC(=O)NN=C1c1cc(Cl)c2[nH]c(=O)sc2c1 (centres unmarked) [compound 29, 4-chloro-6-(4-methyl-6-oxo-1,4,5,6-tetrahydropyridazin-3-yl)benzo[d]thiazol-2 (3H)-one] |
